Results on one compound are retold here after the NIST ThermoML archive (doi:10.1021/acs.jced.8b00977).

Molecules are shown by their SMILES. Numbers after ± are expanded uncertainties.

For data set [1] the following is noted: Crystal; DSC.
A short description of data set [2]: Molar enthalpy of transition or fusion. Particulars: Crystal; DSC.

With `CC(=O)CC(c1ccccc1)c1c([O-])c2ccccc2oc1=O.[Na+]` (configuration not stated) [warfarin sodium], the Triple point temperature in data set [1] was 468.87 ± 1 K. Further, the “Molar enthalpy of transition or fusion” value in data set [2] came to 17 ± 0.884 kcal/mol.
